{"source": "patent US12264134B2", "about": "(Merck Sharp & Dohme LLC, priority 2018, dated 2025)", "key": {"IDO1 [1]": {"target": "T1, IDO1 (Homo sapiens, UniProt P14902)", "T1 sequence (P14902 whole entry)": "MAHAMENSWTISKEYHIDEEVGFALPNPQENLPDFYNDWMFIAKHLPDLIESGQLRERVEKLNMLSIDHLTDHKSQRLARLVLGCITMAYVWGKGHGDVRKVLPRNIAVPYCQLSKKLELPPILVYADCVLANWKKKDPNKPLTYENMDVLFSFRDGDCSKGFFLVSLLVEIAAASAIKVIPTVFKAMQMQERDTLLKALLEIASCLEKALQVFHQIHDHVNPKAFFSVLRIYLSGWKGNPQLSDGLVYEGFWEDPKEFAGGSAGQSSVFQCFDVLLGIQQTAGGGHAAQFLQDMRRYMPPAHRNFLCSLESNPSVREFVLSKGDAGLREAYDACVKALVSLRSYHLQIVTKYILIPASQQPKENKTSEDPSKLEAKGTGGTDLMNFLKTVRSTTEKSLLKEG", "assay": "IDO1 Human Whole blood Assay", "format": "cell-based", "set-up": "Human whole blood was drawn in sodium heparin coated tubes from healthy internal donors; from tissue; host or cells: human whole blood from healthy donors, stimulated with LPS and IFNγ", "settings": "LPS and IFNγ stimulated, 18 h, read-out: Human Whole Blood Potency, IC50", "outline": "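Heparinized healthy-donor human whole blood was preincubated 15 min with compound, then stimulated with LPS and IFNγ (100 ng/mL final) for 18 h at 37 °C. Plasma kynurenine was quantified by LC/MS/MS against a D6-kynurenine internal standard, and IC50s came from 4-parameter sigmoidal fits.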"}, "IDO1 [2]": {"target": "T1, IDO1", "assay": "IDO1 Cellular Assay in HeLa Cells Stimulated with IFNγ", "format": "cell-based", "settings": "read-out: HeLa Cell Potency, IC50"}}, "data": [{"smiles": "Cc1c(Cl)cccc1N1CCN(C(=O)Cn2nc(C(=O)N3CCN(C(=O)CO)CC3)c3c2C[C@H]2C[C@@H]32)CC1", "note": "[Example 352, 1-(4-(3-chloro-2-methylphenyl)piperazin-1-yl)-2-((3bR,4aR)-3-(4-(2-hydroxyacetyl)piperazine-1-carbonyl)-3b,4,4a,5-tetrahydro-1H-cyclopropa[3,4]cyclopenta[1,2-c]pyrazol-1-yl)ethanone]", "values": [{"measurement": "IC50", "setting": "IDO1 [1]", "result": 79, "unit": "nM"}, {"measurement": "IC50", "setting": "IDO1 [2]", "result": 1.17, "unit": "nM"}]}, {"smiles": "Cc1c(F)ccc(N2CCN(C(=O)Cn3nc(C(=O)N4CCC(O)C(CO)C4)c4c3C[C@@H]3C[C@H]43)C3(CC3)C2)c1C", "note": "(stereo in doubt) [Example 324, 1-[7-(4-fluoro-2,3-dimethylphenyl)-4,7-diazaspiro[2.5]octan-4-yl]-2-{(3bS,4aS)-3-[4-hydroxy-3-(hydroxymethyl)piperidine-1-carbonyl]-3b,4,4a,5-tetrahydro-1H-cyclopropa[3,4]cyclopenta[1,2-c]pyrazol-1-yl}ethan-1-one]", "values": [{"measurement": "IC50", "setting": "IDO1 [1]", "result": 555, "unit": "nM"}, {"measurement": "IC50", "setting": "IDO1 [2]", "result": 0.64, "unit": "nM"}]}, {"smiles": "Cc1cccc(N2CCN(C(=O)Cn3nc(C(=O)N4CCO[C@@H](CO)C4)c4c3CCCC4)CC2)c1C", "note": "[Example 470, (R)-1-(4-(2,3-dimethylphenyl)piperazin-1-yl)-2-(3-(2-(hydroxymethyl)morpholine-4-carbonyl)-4,5,6,7-tetrahydro-1H-indazol-1-yl)ethanone]", "values": [{"measurement": "IC50", "setting": "IDO1 [1]", "result": 31, "unit": "nM"}, {"measurement": "IC50", "setting": "IDO1 [2]", "result": 2.62, "unit": "nM"}]}, {"smiles": "Cc1c(Cl)cccc1N1CCN(C(=O)Cn2nc(C(=O)N3CCC(OCCO)CC3)c3c2CCC(F)C3)CC1", "note": "(single isomer, unassigned) [Example 368, 1-(4-(3-chloro-2-methylphenyl)piperazin-1-yl)-2-(5-fluoro-3-(4-(2-hydroxyethoxy)piperidine-1-carbonyl)-4,5,6,7-tetrahydro-1H-indazol-1-yl)ethan-1-one]", "values": [{"measurement": "IC50", "setting": "IDO1 [1]", "result": 55, "unit": "nM"}, {"measurement": "IC50", "setting": "IDO1 [2]", "result": 2.8, "unit": "nM"}]}, {"smiles": "Cc1cccc(N2CCN(C(=O)Cn3nc(C(=O)N4CCC(O)CC4)c4c3CCC4)CC2)c1C", "note": "[Example 87, 1-[4-(2,3-dimethylphenyl)piperazin-1-yl]-2-[3-(4-hydroxypiperidine-1-carbonyl)-5,6-dihydrocyclopenta[c]pyrazol-1(4H)-yl]ethan-1-one]", "values": [{"measurement": "IC50", "setting": "IDO1 [1]", "result": 2300, "unit": "nM"}, {"measurement": "IC50", "setting": "IDO1 [2]", "result": 4.27, "unit": "nM"}]}, {"smiles": "Cc1cccc(N2CCN(C(=O)Cn3nc(C(=O)N4CCC(O)(CO)CC4)c4c3CCC4)CC2)c1C", "note": "[Example 141, 1-[4-(2,3-dimethylphenyl)piperazin-1-yl]-2-{3-[4-hydroxy-4-(hydroxymethyl)piperidine-1-carbonyl]-5,6-dihydrocyclopenta[c]pyrazol-1(4H)-yl}ethan-1-one]", "values": [{"measurement": "IC50", "setting": "IDO1 [1]", "result": 360, "unit": "nM"}, {"measurement": "IC50", "setting": "IDO1 [2]", "result": 11.3, "unit": "nM"}]}, {"smiles": "Cc1cccc(N2CCN(C(=O)Cn3nc(C(=O)N4CCC(F)(CO)CC4)c4c3C[C@H]3C[C@@H]43)C3(CC3)C2)c1C", "note": "[Example 362, 1-(7-(2,3-dimethylphenyl)-4,7-diazaspiro[2.5]octan-4-yl)-2-((3bR,4aR)-3-(4-fluoro-4-(hydroxymethyl)piperidine-1-carbonyl)-3b,4,4a,5-tetrahydro-1H-cyclopropa[3,4]cyclopenta[1,2-c]pyrazol-1-yl)ethanone]", "values": [{"measurement": "IC50", "setting": "IDO1 [1]", "result": 335, "unit": "nM"}, {"measurement": "IC50", "setting": "IDO1 [2]", "result": 0.8, "unit": "nM"}]}, {"smiles": "Cc1cccc(N2CCN(C(=O)Cn3nc(C(=O)N4CCC(O)CC4)c4c3C[C@H]3C[C@@H]43)[C@H](C)C2)c1C", "note": "[Example 335, 1-[(2R)-4-(2,3-dimethylphenyl)-2-methylpiperazin-1-yl]-2-[(3bR,4aR)-3-(4-hydroxypiperidine-1-carbonyl)-3b,4,4a,5-tetrahydro-1H-cyclopropa[3,4]cyclopenta[1,2-c]pyrazol-1-yl]ethan-1-one]", "values": [{"measurement": "IC50", "setting": "IDO1 [1]", "result": 587, "unit": "nM"}, {"measurement": "IC50", "setting": "IDO1 [2]", "result": 2.75, "unit": "nM"}]}, {"smiles": "Cc1c(F)ccc(N2CCN(C(=O)Cn3nc(C(=O)N4CC[C@H](O)[C@H](F)C4)c4c3C[C@H]3C[C@@H]43)C3(CC3)C2)c1C", "note": "[Example 317, 1-[7-(4-fluoro-2,3-dimethylphenyl)-4,7-diazaspiro[2.5]octan-4-yl]-2-{(3bR,4aR)-3-[(3R,4S)-3-fluoro-4-hydroxypiperidine-1-carbonyl]-3b,4,4a,5-tetrahydro-1H-cyclopropa[3,4]cyclopenta[1,2-c]pyrazol-1-yl}ethan-1-one]", "values": [{"measurement": "IC50", "setting": "IDO1 [1]", "result": 205, "unit": "nM"}, {"measurement": "IC50", "setting": "IDO1 [2]", "result": 1.65, "unit": "nM"}]}, {"smiles": "Cc1cccc(N2CCN(C(=O)Cn3nc(C(=O)N4CCCC4)c4c3CCC4)CC2)c1C", "note": "[Example 1, 1-(4-(2,3-dimethylphenyl)piperazin-1-yl)-2-(3-(pyrrolidine-1-carbonyl)-5,6-dihydrocyclopenta[c]pyrazol-1(4H)-yl)ethanone]", "values": [{"measurement": "IC50", "setting": "IDO1 [1]", "result": 1820, "unit": "nM"}, {"measurement": "IC50", "setting": "IDO1 [2]", "result": 8.75, "unit": "nM"}]}, {"smiles": "Cc1cccc(N2CCN(C(=O)Cn3nc(C(=O)N4CC[C@@H](O)[C@@H](C)C4)c4c3CCC4)CC2)c1C", "note": "[Example 106, 1-[4-(2,3-dimethylphenyl)piperazin-1-yl]-2-{3-[(3S,4R)-4-hydroxy-3-methylpiperidine-1-carbonyl]-5,6-dihydrocyclopenta[c]pyrazol-1(4H)-yl}ethan-1-one]", "values": [{"measurement": "IC50", "setting": "IDO1 [1]", "result": 802, "unit": "nM"}, {"measurement": "IC50", "setting": "IDO1 [2]", "result": 3.87, "unit": "nM"}]}, {"smiles": "Cc1cccc(N2CCN(C(=O)Cn3nc(C(=O)N4CCC(F)(CO)CC4)c4c3C[C@H]3C[C@@H]43)CC2)c1C", "note": "[Example 286, 1-[4-(2,3-dimethylphenyl)piperazin-1-yl]-2-{(3bR,4aR)-3-[4-fluoro-4-(hydroxymethyl)piperidine-1-carbonyl]-3b,4,4a,5-tetrahydro-1H-cyclopropa[3,4]cyclopenta[1,2-c]pyrazol-1-yl}ethan-1-one]", "values": [{"measurement": "IC50", "setting": "IDO1 [1]", "result": 44, "unit": "nM"}, {"measurement": "IC50", "setting": "IDO1 [2]", "result": 1.52, "unit": "nM"}]}, {"smiles": "Cc1cccc(N2CCN(C(=O)Cn3nc(C(=O)N4CC[C@H](O)[C@H](F)C4)c4c3CC(C(F)F)C4)CC2)c1C", "note": "(mixture of isomers) [Example 17, 2-[rac-5-(difluoromethyl)-3-[(3R,4S)-3-fluoro-4-hydroxy-piperidine-1-carbonyl]-5,6-dihydro-4H-cyclopenta[c]pyrazol-1-yl]-1-[4-(2,3-dimethylphenyl)piperazin-1-yl]ethanone]", "values": [{"measurement": "IC50", "setting": "IDO1 [1]", "result": 625, "unit": "nM"}, {"measurement": "IC50", "setting": "IDO1 [2]", "result": 10.9, "unit": "nM"}]}, {"smiles": "Cc1cccc(N2CCN(C(=O)Cn3nc(C(=O)N4CCN(CC(F)(F)F)CC4)c4c3CCC4)CC2)c1C", "note": "[Example 158, 1-[4-(2,3-dimethylphenyl)piperazin-1-yl]-2-{3-[4-(2,2,2-trifluoroethyl)piperazine-1-carbonyl]-5,6-dihydrocyclopenta[c]pyrazol-1(4H)-yl}ethan-1-one]", "values": [{"measurement": "IC50", "setting": "IDO1 [1]", "result": 375, "unit": "nM"}, {"measurement": "IC50", "setting": "IDO1 [2]", "result": 3.06, "unit": "nM"}]}, {"smiles": "Cc1cccc(N2CCN(C(=O)Cn3nc(C(=O)N4CC[C@H](O)[C@@H](C)C4)c4c3CCC4)CC2)c1C", "note": "[Example 94, 1-[4-(2,3-dimethylphenyl)piperazin-1-yl]-2-{3-[(3S,4S)-4-hydroxy-3-methylpiperidine-1-carbonyl]-5,6-dihydrocyclopenta[c]pyrazol-1(4H)-yl}ethan-1-one]", "values": [{"measurement": "IC50", "setting": "IDO1 [1]", "result": 345, "unit": "nM"}, {"measurement": "IC50", "setting": "IDO1 [2]", "result": 2.46, "unit": "nM"}]}, {"smiles": "Cc1cccc(N2CCN(C(=O)Cn3nc(C(=O)N4CCC(F)(CO)CC4)c4c3CCC4)CC2)c1C", "note": "[Example 293, 1-[4-(2,3-dimethylphenyl)piperazin-1-yl]-2-{3-[4-fluoro-4-(hydroxymethyl)piperidine-1-carbonyl]-5,6-dihydrocyclopenta[c]pyrazol-1(4H)-yl}ethan-1-one]", "values": [{"measurement": "IC50", "setting": "IDO1 [1]", "result": 178, "unit": "nM"}, {"measurement": "IC50", "setting": "IDO1 [2]", "result": 5.46, "unit": "nM"}]}, {"smiles": "Cc1cccc(N2CCN(C(=O)Cn3nc(C(=O)N4CCC(N5CCNC5=O)CC4)c4c3CCC4)CC2)c1C", "note": "[Example 130, 1-[1-(1-{2-[4-(2,3-dimethylphenyl)piperazin-1-yl]-2-oxoethyl}-1,4,5,6-tetrahydrocyclopenta[c]pyrazole-3-carbonyl)piperidin-4-yl]imidazolidin-2-one]", "values": [{"measurement": "IC50", "setting": "IDO1 [1]", "result": 175, "unit": "nM"}, {"measurement": "IC50", "setting": "IDO1 [2]", "result": 3.54, "unit": "nM"}]}, {"smiles": "Cc1cccc(N2CCN(C(=O)Cn3nc(C(=O)N4CCC(O)(CN)CC4)c4c3C[C@H]3C[C@@H]43)CC2)c1C", "note": "[Example 238, 2-{(3bR,4aR)-3-[4-(aminomethyl)-4-hydroxypiperidine-1-carbonyl]-3b,4,4a,5-tetrahydro-1H-cyclopropa[3,4]cyclopenta[1,2-c]pyrazol-1-yl}-1-[4-(2,3-dimethylphenyl)piperazin-1-yl]ethan-1-one]", "values": [{"measurement": "IC50", "setting": "IDO1 [1]", "result": 5050, "unit": "nM"}, {"measurement": "IC50", "setting": "IDO1 [2]", "result": 8.43, "unit": "nM"}]}, {"smiles": "Cc1c(Cl)cccc1N1CCN(C(=O)Cn2nc(C(=O)N3CC[C@H](O)[C@H](F)C3)c3c2CCC(F)(F)C3)CC1", "note": "[Example 381]", "values": [{"measurement": "IC50", "setting": "IDO1 [1]", "result": 598, "unit": "nM"}, {"measurement": "IC50", "setting": "IDO1 [2]", "result": 4.85, "unit": "nM"}]}, {"smiles": "Cc1cccc(N2CCN(C(=O)Cn3nc(C(=O)N4CCC(O)C(F)C4)c4c3CCC4)C3(CC3)C2)c1C", "note": "(stereo not shown) [Example 325, 1-[7-(2,3-dimethylphenyl)-4,7-diazaspiro[2.5]octan-4-yl]-2-[3-(3-fluoro-4-hydroxy-piperidine-1-carbonyl)-5,6-dihydro-4H-cyclopenta[c]pyrazol-1-yl]ethanone]", "values": [{"measurement": "IC50", "setting": "IDO1 [1]", "result": 625, "unit": "nM"}, {"measurement": "IC50", "setting": "IDO1 [2]", "result": 4.08, "unit": "nM"}]}, {"smiles": "Cc1cccc(N2CCN(C(=O)Cn3nc(C(=O)N4CC[C@@H](O)[C@@H](F)C4)c4c3CCCC4)CC2)c1Cl", "note": "[Example 457, 1-(4-(2-chloro-3-methylphenyl)piperazin-1-yl)-2-(3-((3S,4R)-3-fluoro-4-hydroxy-piperidine-1-carbonyl)-4,5,6,7-tetrahydro-1H-indazol-1-yl)ethanone]", "values": [{"measurement": "IC50", "setting": "IDO1 [1]", "result": 307, "unit": "nM"}, {"measurement": "IC50", "setting": "IDO1 [2]", "result": 1.75, "unit": "nM"}]}, {"smiles": "Cc1cccc(N2CCN(C(=O)Cn3nc(C(=O)N4CCN(S(C)(=O)=O)CC4)c4c3CCC4)CC2)c1C", "note": "[Example 127, 1-[4-(2,3-dimethylphenyl)piperazin-1-yl]-2-{3-[4-(methylsulfonyl)piperazine-1-carbonyl]-5,6-dihydrocyclopenta[c]pyrazol-1(4H)-yl}ethan-1-one]", "values": [{"measurement": "IC50", "setting": "IDO1 [1]", "result": 126, "unit": "nM"}, {"measurement": "IC50", "setting": "IDO1 [2]", "result": 2.36, "unit": "nM"}]}, {"smiles": "Cc1cccc(N2CCN(C(=O)Cn3nc(C(=O)N4C[C@@H](C)N(C)[C@@H](C)C4)c4c3C[C@H]3C[C@@H]43)CC2)c1C", "note": "[Example 235, 1-[4-(2,3-dimethylphenyl)piperazin-1-yl]-2-{(3bR,4aR)-3-[(3R,5S)-3,4,5-trimethylpiperazine-1-carbonyl]-3b,4,4a,5-tetrahydro-1H-cyclopropa[3,4]cyclopenta[1,2-c]pyrazol-1-yl}ethan-1-one]", "values": [{"measurement": "IC50", "setting": "IDO1 [1]", "result": 339, "unit": "nM"}, {"measurement": "IC50", "setting": "IDO1 [2]", "result": 3.1, "unit": "nM"}]}]}
